Structures can show the parent of a compound that is named as a salt. Where two headings read alike, the source gives them in different places. Marks after values point to notes of the source that are not given here.
Experiments:
[1] = test system: spontaneously hypertensive rats; test: Antihypertensive action, tail-cuff method, single oral dose; type: in vivo; conditions: difference in blood pressure before and after administration; 10 mg/kg oral; an hour after the administration; two rats
Experimental: Measurement was conducted an hour after the administration. […] The antihypertensive action of each of […] nicardipine was also measured for comparison.

thoracic aorta = test: Calcium antagonism: relaxation of thoracic aorta helical strips contracted with hyperpotassium solution; type: cell-based, rabbit; conditions: Oryctolagus cuniculus; concentration for 50 % relaxation; hyperpotassium solution (50 mM); relaxation with 10^-4 M papaverine defined as 100 %; read-out: Measured Value (IC50)
Experimental: A thoracic aorta was removed from a rabbit to obtain a helical strips (width: 3 mm; length: 30 mm). This strip was suspended under a load of 0.5 g in a Magnus tube filled with Krebs-Henseleit solution. Subsequently, the Krebs-Henseleit solution was replaced with hyperpotassium solution (50 mM) to contract the strip. The strip was then left to stand until the contraction was stabilized. Thereafter, the compounds obtained in Examples 18, 19 and 20 and dissolved in ethanol-distilled water were added to the strip.
The concentration (IC50) of each compound required for obtaining relaxation of 50 % was measured. It is to be noted that the relaxation of a strip treated with 10-^4M papaverine was defined to 100 %.

in vivo = conditions: oral, after a fast, 4-week old mouse, read-out: Toxicity (LD50)
Experimental: After a fast, a ddy-mouse (4-week old) was orally given a solution obtained by dissolving and/or suspending the compound in each Example 18, 19 and 20 in dimethylsulfoxide (DMSO) or carboxymethylcellulose (CMC). The value of LD50 was calculated from the mortality.

[2] = test system: spontaneously hypertensive rats; test: Antihypertensive action regarding administration amount, tail-cuff method; type: in vivo; conditions: for ED (40 mmHg decrease): Rattus norvegicus, read-out: ED-40 mmHg; for T1/2(dose): time for recovery to 50 % of maximal effect (index of persistence)
Experimental: Ten spontaneously hypertensive rats (10 - 20 week old) were used for this test. Blood pressure was measured in accordance with tail-cuff method by employing a blood pressure gauge for small animals UR-1000 (manufactured by Ueda Works, Ltd., Japan). […] The amount of each compound required for lowering the blood pressure of 40 mmHg decrease in blood pressure was calculated from the relationship between the administration amount and the blood pressure after adiministration (lowermost blood pressure). This amount was defined as ED-40 mmHg for serving as an index of antihypertensive action. Tz was shown as the time required for recovery to 50 % of maximal […]. This value was used for an index of persistence.

[3] = oral amount for a 40 mmHg decrease in blood pressure, suspended in 0.5 % carboxymethylcellulose, ten rats

| Compound | Antihypertensive Action [1] [mmHg] | further results |
| --- | --- | --- |
| COC(=O)C1=C(C)NC(C)=C(C(=O)OCC2(CN3CCN(Cc4ccccc4)CC3)CCCCC2)C1c1cccc([N+](=O)[O-])c1 (racemic) [Example 10] | -110 |  |
| COC(=O)C1=C(C)NC(C)=C(C(=O)OCC2(CN(C)Cc3ccccc3Cl)CCCCC2)C1c1cccc([N+](=O)[O-])c1 (racemic) [Example 16] | -120 |  |
| CCOC(=O)C1=C(C)NC(C)=C(C(=O)OCC2(CN(C)C)CCCCC2)C1c1cccc([N+](=O)[O-])c1 (racemic) [Example 7] | -61 |  |
| COC(=O)C1=C(C)NC(C)=C(C(=O)OCC2(CN3CCN(c4ccccc4)CC3)CCCCC2)C1c1cccc([N+](=O)[O-])c1 (single isomer, unassigned; (+)) [Example 20, (+)-1,4-dihydro-2,6-dimethyl-4-(3'-nitro-phenyl)-3,5-pyridinedicarboxylic acid methyl 1-(4-phenylpiperazinylmethyl)cyclohexylmethyl ester dihydrochloride] | -129 | IC50 (thoracic aorta): 420 nM; LD50 (in vivo; medium CMC): 290 mg/kg; ED (40 mmHg decrease) [2, 3]: 0.3 mg/kg; T1/2(dose) ([2]; oral dose 1 mg/kg): >6.0 hr(1 mg/kg)* |
| COC(=O)C1=C(C)NC(C)=C(C(=O)OCC2(CN(C)Cc3ccccc3)CCCCC2)C1c1cccc([N+](=O)[O-])c1.Cl (single isomer, unassigned; (+)) [Example 18, (+)-1,4-dihydro-2,6-dimethyl-4-(3'-nitro-phenyl)-3,5-pyridinedicarboxylic acid 1-(N-benzyl-N-methylaminomethyl)cyclohexylmethyl methyl ester hydrochloride] | -96 | IC50 (thoracic aorta): 100 nM; LD50 (in vivo; medium DMSO): 130 mg/kg; ED (40 mmHg decrease) [2, 3]: 0.7 mg/kg; T1/2(dose) ([2]; oral dose 3 mg/kg): >6.0 hr(3 mg/kg)* |
| CCOC(=O)C1=C(C)NC(C)=C(C(=O)OCC2(CN(C)Cc3ccccc3)CCCCC2)C1c1cccc([N+](=O)[O-])c1 (racemic) [Example 6, 1,4-dihydro-2,6-dimethyl-4-(3'-nitrophenyl)-3,5-pyridinedicarboxylic acid 1-(N-benzyl-N-methylaminomethyl)cyclohexylmethyl ethyl ester] | -110 |  |
| COC(=O)C1=C(C)NC(C)=C(C(=O)OCC2(CN(C)Cc3ccc(Cl)cc3)CCCCC2)C1c1cccc([N+](=O)[O-])c1 (single isomer, unassigned) [Example 22] | -122 |  |
| COC(=O)C1=C(C)NC(C)=C(C(=O)OC)C1c1ccccc1[N+](=O)[O-] [Nifedipine, nifedipine, reference compound] | -58 | IC50 (thoracic aorta): 29 nM; ED (40 mmHg decrease) ([2]; po): 3.3 mg/kg |
| COC(=O)C1=C(C)NC(C)=C(C(=O)OCC2(CN3CCN(C)CC3)CCCCC2)C1c1cccc([N+](=O)[O-])c1 (racemic) [Example 11] | -74 |  |
| COC(=O)C1=C(C)NC(C)=C(C(=O)OCC2(CN(C)Cc3ccc(F)cc3)CCCCC2)C1c1cccc([N+](=O)[O-])c1 (racemic) [Example 15] | -114 |  |
| CC1=C(C(=O)OCC2(CN(C)C)CCCCC2)C(c2cccc([N+](=O)[O-])c2)C(C(=O)OC(C)C)=C(C)N1 (racemic) [Example 5] | -68 |  |
| COC(=O)C1=C(C)NC(C)=C(C(=O)OCC2(CN(C)Cc3ccc(F)cc3)CCCCC2)C1c1cccc([N+](=O)[O-])c1 (single isomer, unassigned) [Example 26] | -111 |  |
| COC(=O)C1=C(C)NC(C)=C(C(=O)OCC2(CN3CCOCC3)CCCCC2)C1c1cccc([N+](=O)[O-])c1 (single isomer, unassigned) [Example 23] | -87 |  |
| COC(=O)C1=C(C)NC(C)=C(C(=O)OCC2(CN(C)Cc3ccccc3)CCCCC2)C1c1cccc([N+](=O)[O-])c1.Cl (racemic) [Example 1, 1,4-dihydro-2,6-dimethyl-4-(3'-nitrophenyl)-3,5-pyridinedicarboxylic acid 1-(N-benzyl-N-methylaminomethyl)cyclohexylmethyl methyl ester hydrochloride] | -131 |  |
| COC(=O)C1=C(C)NC(C)=C(C(=O)OCC2(CN3CCN(Cc4ccccc4)CC3)CCCCC2)C1c1cccc([N+](=O)[O-])c1 (single isomer, unassigned) [Example 25] | -98 |  |
| COC(=O)C1=C(C)NC(C)=C(C(=O)OCC2(CN3CCCCC3)CCCCC2)C1c1cccc([N+](=O)[O-])c1 (single isomer, unassigned; (+)) [Example 19, (+)-1,4-dihydro-2,6-dimethyl-4-(3'-nitro-phenyl)-3,5-pyridinedicarboxylic acid methyl (1-piperidinylmethylcyclohexyl)methyl ester hydrochloride] | -75 | IC50 (thoracic aorta): 1.5 nM; LD50 (in vivo; medium DMSO): 100 mg/kg; ED (40 mmHg decrease) [2, 3]: 0.5 mg/kg; T1/2(dose) ([2]; oral dose 3 mg/kg): >6.0 hr(3 mg/kg)* |
| COC(=O)C1=C(C)NC(C)=C(C(=O)OCC2(CN3CCN(c4ccccc4)CC3)CCCCC2)C1c1cccc([N+](=O)[O-])c1 (racemic) [Example 3, 1,4-dihydro-2,6-dimethyl-4-(3'-nitrophenyl)-3,5-pyridinedicarboxylic acid methyl 1-(4-phenylpiperazinylmethyl)cyclohexylmethyl ester dihydrochloride.1/2 acetone adduct] | -109 |  |
| COC(=O)C1=C(C)NC(C)=C(C(=O)OCCN2CCN(C(c3ccccc3)c3ccccc3)CC2)C1c1cccc([N+](=O)[O-])c1 (stereo not drawn) [Manidipine, reference compound] |  | IC50 (thoracic aorta): 27 nM; LD50 (in vivo; medium CMC): 200 mg/kg; ED (40 mmHg decrease) [2, 3]: 1.7 mg/kg; T1/2(dose) ([2]; oral dose 3 mg/kg): 5.0 hr(3 mg/kg)* |
| COC(=O)C1=C(C)NC(C)=C(C(=O)OCC2(CN(C)C)CCCCC2)C1c1cccc([N+](=O)[O-])c1 (single isomer, unassigned) [Example 21] | -53 |  |
| COC(=O)C1=C(C)NC(C)=C(C(=O)OCC2(CN3CCN(C)CC3)CCCCC2)C1c1cccc([N+](=O)[O-])c1 (single isomer, unassigned) [Example 24] | -79 |  |
| CCN(Cc1ccccc1)CC1(COC(=O)C2=C(C)NC(C)=C(C(=O)OC)C2c2cccc([N+](=O)[O-])c2)CCCCC1 (single isomer, unassigned) [Example 27] | -109 |  |
| COC(=O)C1=C(C)NC(C)=C(C(=O)OCC2(CN3CCOCC3)CCCCC2)C1c1cccc([N+](=O)[O-])c1 (racemic) [Example 12] | -113 |  |
| CCN(CC)CC1(COC(=O)C2=C(C)NC(C)=C(C(=O)OC)C2c2cccc([N+](=O)[O-])c2)CCCCC1 (racemic) [Example 13] | -108 |  |
| COC(=O)C1=C(C)NC(C)=C(C(=O)OCCN(C)Cc2ccccc2)C1c1cccc([N+](=O)[O-])c1 (stereo not drawn) [Nicardipine, nicardipine, reference compound] | -77 | IC50 (thoracic aorta): 6.8 nM; LD50 (in vivo; medium DMSO): 190 mg/kg; ED (40 mmHg decrease) [2, 3]: 2.6 mg/kg; T1/2(dose) ([2]; oral dose 10 mg/kg): 4.5 hr(10mg/kg)* |
| COC(=O)C1=C(C)NC(C)=C(C(=O)OCC2(CN(C)Cc3ccccc3)CCCCC2)C1c1cc([N+](=O)[O-])ccc1F (racemic) [Example 8] | -140 |  |
| COC(=O)C1=C(C)NC(C)=C(C(=O)OCC2(CN3CCN(C(c4ccccc4)c4ccccc4)CC3)CCCCC2)C1c1cccc([N+](=O)[O-])c1 (racemic) [Example 17] | -112 |  |
| 1,4-dihydro-2,6-dimethyl-4-(3'-nitrophenyl)-3,5-pyridinedicarboxylic acid methyl (1-piperidinylmethylcyclohexyl)methyl ester hydrochloride [Example 2] | -89 |  |
